| melting point [°C] | Compound |
| --- | --- |
| 192 to 194 | O=C(Nc1ccc(-c2cnc(-c3ccc(NC(=O)C4CCCCC4)cc3)[nH]2)cc1)C1CCCCCC1 |
| 148 to 150 | COC(=O)COc1ccc(NC(=O)CO)cc1 |
| 217 to 219 | COc1ccc(C(N)=O)c(OC)c1-c1ccc(C[C@H](NC(=O)c2c(Cl)cc(NC(N)=O)cc2Cl)C(=O)O)cc1 |
| 133 to 135 | CCCc1nc2cnc3ccccc3c2n1CCCCNS(C)(=O)=O |
| 99.5 to 100 | CCCc1c(OCc2ccc(C(=O)OC)cc2)ccc(C(C)=O)c1O |
| 132 to 135 | CC(=O)N1CCC(NC(=O)N(CCCN2CCC(Cc3ccccc3)CC2)c2ccccc2)CC1 |
| > 250 | COc1ccc(-c2nc(N3CCN(C)CC3)c3c(C)c(C#N)sc3n2)cc1 |
| 222 to 224 | COc1ccc([C@@H]2Sc3cc(Oc4ccc(F)cc4)ccc3NC(=O)[C@@H]2O)cc1F |
| 94 | CC(C)(C)OC(=O)C(Nc1ccccc1)C(=O)OC(C)(C)C |
| 114 to 115 | COc1cc(-c2ncn(Cc3ccccc3)c2-c2scc(OC)c2OC)cc(OC)c1OC |
| 189 to 192 | O=C(NC(=O)c1cccnc1Cl)Nc1cc(Cl)c(OC(F)(F)C(Cl)Cl)c(Cl)c1 |
| 106 | CCOC(=O)C1=C(C)NC(N)=C(C(=O)OC(C)C)C1c1ccccc1C(F)(F)F (configuration not stated) |
| 175 to 178 | CCOC(=O)c1cn(NCCC=O)c2nc(C)ccc2c1=O |
| > 300 | CC(CCNC(=O)C(C#N)=Cc1cc(O)c(O)c(O)c1)NC(=O)C(C#N)=Cc1cc(O)c(O)c(O)c1 (configuration not stated) |
| 240 to 242 | C[C@@H]1S[C@@H](C(=O)Nc2ccc(CN3C(=O)COC3=O)cc2)Cc2cc3c(cc2C1=O)OCO3 |
| 172 to 174 | COc1ccc(CNc2nnc(N3CCC(O)CC3)c3ccc(C#N)cc23)cc1Cl |
| 74 | O=C(O)CCCc1cc2nc(Cl)ccc2n1S(=O)(=O)c1cccc2nccnc12 |
| 96 to 98 | CC(C)(C)NC(=O)[C@@H]1CSCN1C(=O)OCc1ccccc1 |
| 264 to 267 | CCn1cc(C(=O)O)c(=O)c2cc(F)c(N3Cc4ccc(C(=O)OC)cc4C3)c(F)c21 |
| 100 to 102 | C=CCn1c(COCc2ccc(OC)cc2)nc(C(C)C)c1Sc1cc(Cl)cc(Cl)c1 |
| 59 to 62 | CSc1nccn1-c1cccc(C(=O)CC(=O)Nc2cc(-c3ccccc3F)c(OC(C)(C)C)cc2NC(=O)OC(C)(C)C)c1 |
| 61 to 62 | Nc1cc(C(=O)OC2CCCC2)c(Cl)cc1F |
| 196 | CSc1nc2cc(Cl)ccc2n1C1CCN(CCCn2c(=O)[nH]c3ccccc32)CC1 |
| 85 | CCCC(Cc1ccc(OCCN2CCCCCC2)cc1)(C(=O)NO)S(=O)(=O)c1ccc(OC)cc1 (configuration not stated) |

| melting point [°C] | Compound |
| --- | --- |
| 157 to 160 | CC1(C)[C@@H](CNS(C)(=O)=O)CC[C@@]1(C)NCC(=O)N1C[C@@H](F)C[C@H]1C#N |
| 46 to 50 | CCCn1nc(C(C)C)c(C(=O)OCc2cccc(C(=O)c3ccccc3)c2)c1Cc1ccc(-c2ccccc2S(N)(=O)=O)c(F)c1 |
| 102 to 106 | CC(C)OC(=O)c1cc(-n2c(=O)[nH]c(C(F)(F)F)c(F)c2=O)c(F)cc1Cl |
| 107 to 108 | CCCCCCCCCCCCCCCCCCS(=O)c1cc2ccccc2cc1O (configuration not stated) |
| 227 | CNc1ccc(/C=C/C(=O)O)cn1 |
| 160 to 163 | O=C(Cc1ccccc1I)Nc1ccccc1I |
| 125 to 127 | COc1ccccc1-c1cc(=O)cc(N2CCOCC2)o1 |
| 81 to 82 | CCOc1ccc(C(=O)COC(C)=O)cc1 |
| 162 | O=C(CNC(=O)n1ccnc1)N(c1ccccc1)c1ccccc1 |
| 142 to 143 | Cc1cc(C)n(-c2ccc(NN)nn2)n1 |
| 81 to 82 | C[Si](C)(C)C#Cc1ccc(C#N)cc1[N+](=O)[O-] |
| 87 to 89 | O=C(Nc1ccccc1N1CCc2ccccc21)C1CCCCC1 |
| 91 | C=C(C)C(=O)OCCC#Cc1ccc2c(ccc3cc(OC(=O)C(=C)C)ccc32)c1 |
| 49 to 51 | O=C1C(Br)=C(c2cn(S(=O)(=O)c3ccccc3)c3ccccc23)C(=O)N1COCc1ccccc1 |
| 86 to 89 | CS(=O)(=O)c1ccc(C(CC2CCCC2)C(=O)Nc2ccccn2)cc1C(F)(F)F (configuration not stated) |
| 231 to 232 | COc1ccc(CS(=O)(=O)c2cc3cc(Br)ccc3oc2=O)cc1 |
| 147 to 148 | CC(c1ccc(-c2ccccc2)c(F)c1)c1csc(NC(=O)c2ccccc2)n1 (configuration not stated) |
| 61 to 62 | O=[N+]([O-])c1cc(CO)ccc1Br |
| 91 to 93 | C=CCN1CCn2c1nc1ccc(Cl)cc1c2=O |
| 145 to 146 | COc1cccc(NC(=O)c2ccc(F)c([N+](=O)[O-])c2)c1 |
| 192 to 193 | COc1c(N2CCCC(CN)C2)c(F)cc2c(=O)c(C(=O)O)cn(C3CC3)c12 (configuration not stated) |
| 95 to 96 | Fc1ccc(F)c2c(NCCc3ccc(Oc4ccnc(C(F)(F)F)c4)cc3)ncnc12 |
| 141 to 142 | O=C(O)CCOCCCc1cccc(-c2nc(=O)c3ccccc3s2)n1 |
| 170 to 172 | COc1ccc2c(c1)C(=O)C(=Cc1ccncc1)CO2 |

| melting point [°C] | Compound |
| --- | --- |
| 196 to 197 | O=C(O)Cc1cncc(Cc2nc3c(F)c(F)cc(F)c3s2)c1 |
| 195 to 196 | CCC(=O)c1cccc2nc3n(c12)CCCN3c1ccc(Cl)cc1Cl |
| 168 to 170 | CSc1ccc2c(SCc3ccc(N(C)C)cc3)ccnc2c1 |
| 129 to 130 | CSc1cc2cc(-c3ccccc3)ccc2cc1O |
| 92 to 94 | CCOC(=O)C1COc2ccc(Cl)c(Cl)c2O1 (configuration not stated) |
| 85 | CCC(C)N(C)C(=O)c1cc2ccccc2c(-c2ccccc2F)n1 (configuration not stated) |
| 122 to 124 | CN1C(=O)CCC2(C)c3ccc(Sc4ccc(Cl)cc4)cc3CCC12 (single isomer, unassigned; (+)) |
| 81 to 83 | CC(=NOC(C)(C)C)c1cnc(NC(=O)[C@H](CC2CCCC2)c2ccc(S(C)(=O)=O)cc2)cn1 |
| 126 to 127 | CO[C@]1(c2cnc(S)s2)CCO[C@@H]1C (racemic) |
| 88 to 91 | CCCCCCCCCCCCc1ccccc1C(Sc1nc(C)c(C(=O)O)s1)C(=O)O (configuration not stated) |
| 135 | CONc1cc(Cl)nc(S(C)(=O)=O)n1 |
| 59 to 60 | O=C1Nc2ccccc2SC1CCCO (configuration not stated) |
| 151 | COc1c(C(=O)O)cc(Cl)c(N)c1C |
| 106 | CN(Cc1ccc(=O)n(Cc2ccc(Cl)cc2)c1)c1ccccc1 |
| 69 to 70 | O=C1c2ccccc2C(=O)N1CCCC(c1ccc(F)cc1)c1ccc(F)cc1 |
| 83 to 85 | CCCCCCCCCCCCNC(=O)CS(=O)(=O)Nc1c(C(C)C)cccc1C(C)C |
| 202 to 204 | COc1cc(N(C(C)=O)c2c(C#N)cnc3ccsc23)c(Cl)cc1Cl |
| 235 to 236 | O=C(Nc1c[nH]nc1C(=O)NCC(F)(F)F)c1ccccn1 |
| 85 to 86 | OCCCc1cnoc1-c1ccc(C(F)(F)F)cc1 |
| 42 to 43 | COC(=O)NC(C)(C)c1ccc(C)cc1 |
| 122 | O=C(c1ccc(-c2ccc(OCCCN3CCCCC3)cc2)cc1)N1CCCCC1 |
| 117 to 123 | O=C1C2CCCCC2C(=O)N1c1ccc(F)cc1F (configuration not stated) |
| 90 to 93 | CC(=O)OCC1OC(Oc2ccsc2C(=O)c2ccc(OC(F)(F)F)cc2)C(OC(C)=O)C(OC(C)=O)C1OC(C)=O (configuration not stated) |
| 159 to 160 | O=C(O)COc1ccc(CCCS(=O)(=O)c2ccc(Cl)cc2)cc1 |

| melting point [°C] | Compound |
| --- | --- |
| 204 to 206 | CCN(CC)c1ccc2c(c1)Cc1c-2[nH]c2ccccc12 |
| 100 | N#Cc1ccccc1C(=O)c1ccccc1O |
| 166 to 167 | COc1cc2c(cc1OC(C)=O)CCC1C2CCC2(C)C1CCC21OCCO1 (configuration not stated) |
| 156 to 157 | CC(C)NC(=S)NC(=O)c1ccc(C#N)cc1 |
| 146 to 147 | Nc1ccc(C(O)C(COc2ccccc2)N2CCC(Cc3ccccc3)CC2)cc1 (configuration not stated) |
| 85 to 87 | CCOC(=O)C(C)(C)N1COC(C)=C(I)C1=O |
| 193 to 196 | CCOC(=O)/C=C/c1cccc(-c2c(CC(=O)Nc3ccc(F)cc3C(F)(F)F)c(=O)oc3cc(Cl)c(C)cc23)c1 |
| 133 to 137 | O=C(O)C(Cc1ccc(OCc2ccccc2)cc1)c1ccccc1 (configuration not stated) |
| 181 to 182 | COc1cc2c3cc(OC)c(OC)cc3n(C(=O)c3ccccc3)c2cc1OC |
| 190 to 192 | O=C(O)Cc1ccc(NC(=O)C(COc2ccccc2)NS(=O)(=O)c2ccc(Cl)cc2)cc1 (racemic) |
| 112 to 113 | CSc1ccc([N+](=O)[O-])cc1C(=O)OC(C)(C)C |
| 189 to 192 | COc1cn(-c2cccc3cccnc23)nc(-c2ccnn2-c2ccccc2)c1=O |
| 229 to 231 | Cc1cnc(Sc2nc(C)c(CC(=O)O)s2)c(C(=O)O)c1 |
| 155 | CN1CCN(c2ccc(C3(C)C(=O)Nc4ccc(Cl)cc43)c(Cl)c2)CC1 (configuration not stated) |
| 129 to 131 | O=S1(=O)CCN(Cc2ccc(Br)cn2)CC1 |
| 145 | O=C1c2ccccc2C(=O)c2c1cccc2N1CCC(O)CC1 |
| 210 to 211 | C=CCNc1nc(Cl)nc(N(CCCCCCN(c2nc(Cl)nc(NCC=C)n2)C2CC(C)(C)NC(C)(C)C2)C2CC(C)(C)NC(C)(C)C2)n1 |
| 144 | Cc1cccc(Nn2cnc(C)c2C)c1 |
| 115 | COC1(c2cccc(S(=O)(=O)c3ccc4c(c3)C(C)(C)S(=O)(=O)C4(C)C)c2)CCOCC1 |
| 191 to 193 | CN(C)C1CCN(C(=O)C2CCC(c3[nH]nc4c3C(=O)c3c(NC(=O)NN5CCOCC5)cccc3-4)CC2)C1 (configuration not stated) |
| 128 to 129 | C#CCN1C(=O)CN(C)c2ccc(-c3ncc(C(F)(F)F)cc3Cl)cc21 |
| 97 to 98 | C=CCN1CCNC1=C[N+](=O)[O-] |
| 127 to 132 | Cc1cc([N+](=O)[O-])cc(C)c1Oc1ccc(O)c(Cc2ccc(F)cc2)c1 |
| 98 | CC(C)(C(=O)c1ccc(SCCCCS)cc1)N1CCOCC1 |

| Compound | melting point [°C] |
| --- | --- |
| CC[C@H](C)N1CC(C)(C)[C@@H](Oc2ccc(C#N)c(C(F)(F)F)c2)C1=O | 101 to 102 |

— a melting point compilation (Tetko et al.; mined from patent text by program, amines drawn as free bases though some values may be those of a salt)
